Several values for one entry are separate records, joined by “and”; a condition that tells them apart may be missing. Equal entries are not always repeated. Inconclusive results and toxic doses are left out. The calls were made as follows: active = survival T/C of 150% or more; inactive = T/C below 125% in these data.
System: P388 leukemia ip, CD2F1 mice, survival T/C
Assay: NCI In Vivo Anticancer Drug Screen. Data for tumor model P388 Leukemia (intraperitoneal) in CD2F1 (CDF1) mice
Conditions: endpoint: median survival time, higher = longer survival
How it was run: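 Mice carrying the transplanted tumor received test compound or vehicle. Survival was recorded in each group, and the value is the treated-group measurement divided by that of the vehicle-treated control group.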

[1] = dose: 50.0 mg/kg/injection, schedule: Q01DX005 (ip), vehicle: saline with Tween-80
[2] = dose: 100.0 mg/kg/injection, schedule: Q01DX005 (ip), vehicle: saline with Tween-80
[3] = dose: 200.0 mg/kg/injection, schedule: Q01DX005 (ip), vehicle: saline with Tween-80
[4] = dose: 60.0 mg/kg/injection, schedule: Q01DX005 (ip), vehicle: saline
[5] = dose: 120.0 mg/kg/injection, schedule: Q01DX005 (ip), vehicle: saline
[6] = dose: 240.0 mg/kg/injection, schedule: Q01DX005 (ip), vehicle: saline
[7] = dose: 50.0 mg/kg/injection, schedule: Q01DX005 (ip), vehicle: Klucel (hydroxypropylcellulose) (HPC)
[8] = dose: 100.0 mg/kg/injection, schedule: Q01DX005 (ip), vehicle: Klucel (hydroxypropylcellulose) (HPC)
[9] = dose: 200.0 mg/kg/injection, schedule: Q01DX005 (ip), vehicle: Klucel (hydroxypropylcellulose) (HPC)
[10] = dose: 60.0 mg/kg/injection, schedule: Q01DX005 (ip), vehicle: Klucel (hydroxypropylcellulose) (HPC)
[11] = dose: 60.0 mg/kg/injection, schedule: Q01DX005 (ip), vehicle: saline with Tween-80
[12] = dose: 120.0 mg/kg/injection, schedule: Q01DX005 (ip), vehicle: saline with Tween-80
[13] = dose: 240.0 mg/kg/injection, schedule: Q01DX005 (ip), vehicle: saline with Tween-80
[14] = dose: 100.0 mg/kg/injection, schedule: Q01DX009 (ip), vehicle: saline
[15] = dose: 200.0 mg/kg/injection, schedule: Q01DX009 (ip), vehicle: saline
[16] = dose: 25.0 mg/kg/injection, schedule: Q01DX009 (ip), vehicle: other
[17] = dose: 50.0 mg/kg/injection, schedule: Q01DX009 (ip), vehicle: other
[18] = dose: 100.0 mg/kg/injection, schedule: Q01DX009 (ip), vehicle: other
[19] = dose: 200.0 mg/kg/injection, schedule: Q01DX009 (ip), vehicle: other
[20] = dose: 400.0 mg/kg/injection, schedule: Q01DX009 (ip), vehicle: other
[21] = dose: 50.0 mg/kg/injection, schedule: Q01DX009 (ip), vehicle: saline with Tween-80
[22] = dose: 100.0 mg/kg/injection, schedule: Q01DX009 (ip), vehicle: saline with Tween-80
[23] = dose: 200.0 mg/kg/injection, schedule: Q01DX009 (ip), vehicle: saline with Tween-80
[24] = dose: 50.0 mg/kg/injection, schedule: Q01DX009 (ip), vehicle: saline
[25] = dose: 25.0 mg/kg/injection, schedule: Q01DX005 (ip), vehicle: Klucel (hydroxypropylcellulose) (HPC)

Measured: T/C

N#CCS(=O)CC(N)C(=O)O (centres undefined)
inactive: [1] 102 % of control | [2] 101 % of control | [3] 100 % of control

O=C1NC2(CCCCC2)C(=O)N1CCl
inactive: dose: 6.25 mg/kg/injection, schedule: Q01DX005 (ip), vehicle: saline 100 % of control | dose: 12.5 mg/kg/injection, schedule: Q01DX005 (ip), vehicle: saline 101 % of control | dose: 25.0 mg/kg/injection, schedule: Q01DX005 (ip), vehicle: saline 108 % of control | dose: 30.0 mg/kg/injection, schedule: Q01DX005 (ip), vehicle: saline 104 % of control | dose: 50.0 mg/kg/injection, schedule: Q01DX005 (ip), vehicle: saline 103 % of control | [4] 122 % of control | dose: 100.0 mg/kg/injection, schedule: Q01DX005 (ip), vehicle: saline 112 % of control | [5] 118 % of control | [6] 114 % of control

CCOC(=O)c1cnc2c(cnn2CC)c1NN=C(C)C
inactive: dose: 66.0 mg/kg/injection, schedule: Q04DX003 (ip), vehicle: saline 109 % of control | dose: 100.0 mg/kg/injection, schedule: Q04DX003 (ip), vehicle: saline 109 % of control | dose: 150.0 mg/kg/injection, schedule: Q04DX003 (ip), vehicle: saline 104 % of control

O=[N+]([O-])c1ccccc1/C=C\c1ccccn1
inactive: [7] 104 % of control | [8] 101 % of control | [9] 101 % of control

Clc1cc2c(c(CSC3=NCN(CC4CC4)CN3)c1)OCOC2
inactive: dose: 15.0 mg/kg/injection, schedule: Q01DX005 (ip), vehicle: Klucel (hydroxypropylcellulose) (HPC) 99 % of control | dose: 30.0 mg/kg/injection, schedule: Q01DX005 (ip), vehicle: Klucel (hydroxypropylcellulose) (HPC) 100 % of control | [10] 98 % of control and 101 % of control

CC(=O)Nc1cc(Cl)cc2c1-c1ccc(Cl)cc1C2N(C)C (centres undefined)
inactive: [7] 96 % of control | [8] 100 % of control | [9] 87 % of control

CCOC(=O)C1=NN(c2ccccc2)C(C(N)=O)C1 (centres undefined)
inactive: [11] 100 % of control | [12] 101 % of control | [13] 101 % of control

ONC(=Nc1cccc2ccccc12)C(=Nc1cccc2ccccc12)NO
inactive: [10] 99 % of control | dose: 120.0 mg/kg/injection, schedule: Q01DX005 (ip), vehicle: Klucel (hydroxypropylcellulose) (HPC) 102 % of control | dose: 240.0 mg/kg/injection, schedule: Q01DX005 (ip), vehicle: Klucel (hydroxypropylcellulose) (HPC) 103 % of control

Cc1ccccc1N(C=O)c1ccccc1C
inactive: [14] 106 % of control | [15] 93 % of control | dose: 400.0 mg/kg/injection, schedule: Q01DX009 (ip), vehicle: saline 98 % of control

COc1cc2ccc(C(C)=O)c(O)c2cc1OC
inactive: dose: 12.5 mg/kg/injection, schedule: Q01DX009 (ip), vehicle: other 92 % of control | [16] 101 % of control | [17] 90 % of control | [18] 108 % of control | [19] 97 % of control | [20] 99 % of control

Cc1cc(=O)oc2cc(OC(=O)N(C)C)c(Cl)cc12
inactive: [21] 100 % of control | [22] 101 % of control | [23] 101 % of control

NCc1ccccc1Br
inactive: dose: 50.0 mg/kg/injection, schedule: Q01DX005 (ip), vehicle: distilled water + alcohol 101 % of control | dose: 100.0 mg/kg/injection, schedule: Q01DX005 (ip), vehicle: distilled water + alcohol 100 % of control | dose: 200.0 mg/kg/injection, schedule: Q01DX005 (ip), vehicle: distilled water + alcohol 103 % of control

CCNCc1c2c(O)c3c(O)c(C)c4c(c3c1O)C(=O)C(C)(O/C=C/C(OC)C(C)C(OC(C)=O)C(C)C(O)C(C)C(O)C(C)/C=C/C=C(/C)C(=O)N2)O4 (centres undefined)
inactive: [16] 89 % of control | [17] 89 % of control | [18] 89 % of control | [19] 89 % of control | [20] 90 % of control

Cc1ccc(S(=O)(=O)SSN2CCOCC2)cc1
inactive: [1] 103 % of control | [2] 100 % of control | [3] 100 % of control

CCCCCC[N+](C)([O-])CCCCCC[N+](C)([O-])CCCCCC (centres undefined)
inactive: [24] 107 % of control | [14] 101 % of control | [15] 97 % of control

CCCCCCCNc1nn[nH]n1
inactive: [7] 100 % of control | [8] 104 % of control | [9] 98 % of control

COC(=O)c1cc(-c2ccccc2)[nH]c(=O)c1C#N
inactive: [4] 100 % of control | [5] 100 % of control

Cn1ccc2cc(C3CCCc4c3[nH]c3ccccc43)c(OCc3ccccc3)cc21 (centres undefined)
inactive: dose: 6.25 mg/kg/injection, schedule: Q01DX005 (ip), vehicle: Klucel (hydroxypropylcellulose) (HPC) 99 % of control | dose: 12.5 mg/kg/injection, schedule: Q01DX005 (ip), vehicle: Klucel (hydroxypropylcellulose) (HPC) 97 % of control | [25] 97 % of control

COc1cccc(/C=C/c2cc3c(cc2Br)OCO3)c1
inactive: [7] 102 % of control | [8] 108 % of control | [9] 101 % of control

CCC(=O)NS(=O)(=O)c1cccnc1Nc1c(Cl)cccc1Cl
inactive: [24] 96 % of control | [14] 96 % of control | [15] 100 % of control

COC1/C=C/OC2(C)Oc3c(C)c(O)c4c(O)c(c(/C=N/N5CCCN(C)CC5)c(O)c4c3C2=O)NC(=O)/C(C)=C\C=C\C(C)C(O)C(C)C(O)C(C)C(OC(C)=O)C1C (centres undefined)
inactive: [21] 104 % of control | [22] 100 % of control | [23] 102 % of control

CSc1ncnc2c1cnn2C1OC(CO)C(O)C1O (centres undefined)
inactive: dose: 6.25 mg/kg/injection, schedule: Q01DX009 (ip), vehicle: saline with Tween-80 104 % of control | dose: 12.5 mg/kg/injection, schedule: Q01DX009 (ip), vehicle: saline with Tween-80 98 % of control | dose: 25.0 mg/kg/injection, schedule: Q01DX009 (ip), vehicle: saline with Tween-80 116 % of control | [21] 100 % of control

O=C1c2ccccc2-c2cccc3ccnc1c23
inactive: dose: 8.0 mg/kg/injection, schedule: Q01DX009 (ip), vehicle: Klucel (hydroxypropylcellulose) (HPC) 103 % of control | dose: 16.0 mg/kg/injection, schedule: Q01DX009 (ip), vehicle: Klucel (hydroxypropylcellulose) (HPC) 101 % of control | dose: 32.0 mg/kg/injection, schedule: Q01DX009 (ip), vehicle: Klucel (hydroxypropylcellulose) (HPC) 103 % of control | dose: 64.0 mg/kg/injection, schedule: Q01DX009 (ip), vehicle: Klucel (hydroxypropylcellulose) (HPC) 100 % of control

CN(C)c1c(Cl)c(=O)oc2c1ccc1nc(-c3ccccc3)ncc12
inactive: [11] 97 % of control | [12] 88 % of control

NC(C(=O)O)/C1=C/CCCCCC1 (centres undefined)
inactive: [25] 106 % of control | [7] 101 % of control | [8] 98 % of control | [9] 101 % of control

CCOC=C=CCOCC
inactive: [4] 100 % of control | [5] 96 % of control | [6] 96 % of control

CC1(C)N(O)C(c2cccnc2)=[N+]([O-])C1(C)C
inactive: [7] 104 % of control | [24] 97 % of control | [8] 101 % of control | [14] 94 % of control | [9] 103 % of control | [15] 102 % of control

NC(=O)C(F)(F)C(F)(F)C(N)=O
inactive: [11] 107 % of control | [12] 112 % of control | [13] 104 % of control

Source: PubChem BioAssay AID330 (DTP/NCI, 2004)
